Measurements from PMC7399811, “Analogues of a Cyclic Antimicrobial Peptide with a Flexible Linker Show Promising Activity against Pseudomonas aeruginosa and Staphylococcus aureus” (Antibiotics, 2020).
≈ marks a conversion by molar mass, not a printed value. Square brackets hold non-standard residues; d marks the D form. Peptide text beside a SMILES is read from it. Bip = N[C@@H](Cc1ccc(-c2ccccc2)cc1)C(=O)O; 2Nal = N[C@@H](Cc1ccc2ccccc2c1)C(=O)O; Dab = NCC[C@H](N)C(=O)O; AEEA = NCCOCCOCC(=O)O

What was measured:
[1] = RP-HPLC retention time as indicator of hydrophobicity/amphipathicity; type: physicochemical; settings: chromatographic, Waters Symmetry C18 4.6 × 250 mm, used as measure of hydrophobicity/amphipathicity (Table S1)
Method: Cleavage was performed on half or all of the resin with a TFA:H2O:TIS (95:2.5:2.5) solution for 2 h. The cleavage solution was collected and concentrated with a gentle stream of N2, down to about 300 µL. The peptide was precipitated and washed with 4 mL cold (−20 °C) diethyl ether, 3 times. The residual ether was left overnight to evaporate. Next, the crude product was dissolved in 90% water and 10% ACN and freeze-dried, ready for analysis and purification. Peptides were identified using Matrix Assisted Laser Desorption Ionization time of flight mass spectroscopy (MALDI–ToF MS). To this end, 1 µL peptide solution and 1 µL α-cyano4-hydroxycinnamic acid matrix (10 mg/ mL in ACN:H2O:TFA, 50:47.5:2.5) were spotted onto a target plate, followed by detection using a MicroflexTM. FlexControl software was used to obtain the spectra and the data were processed using flexAnalysis [Bruker Daltonik GmbH]. RP–HPLC was used to assess peptide purity. The system consisted of a WatersTM In-Line Degasser AF, a WatersTM 600 pump, a WatersTM 2996 Photodiode Array Detector, and a WatersTM Symmetry C18, 4.6 × 250 mm, […] column. The data were processed using Empower3 software. Purity was ≥95% for all tested peptide. Peptide purification was done by dissolving the peptides in minimal […], and 300–500 µL was injected into the HPLC system to achieve separation.

[2] = tested on: S. aureus, P. aeruginosa, E. coli, A. baumannii; assay: Minimum inhibitory concentration, statements over several strains; type: cell-based; settings: MIC against S. aureus and P. aeruginosa
Method: Bacterial strains (E. coli ATCC 29522, S. aureus ATCC 29213, A. baumannii ATCC 19606, and P. aeruginosa ATCC 27853) were grown overnight on LB agar plates at 37 °C. Overnight cultures were prepared by inoculation of two to three colonies in 10 mL non-cation adjusted Mueller–Hinton broth (MHB) media (BD BBLTM Beef extract powder, BD BactoTMCasamino acids, and DIFCO soluble starch). Bacterial inoculum for MIC testing was prepared as balanced cultures, as previously described. The bacterial suspension was adjusted using MHB to an OD600 of 0.1, approximately 1·10^8 colony forming units (CFU/mL), and then diluted 1:200 in MHB, to give a final bacterial suspension of 5·10^5 CFU/mL, as described by Wiegand et al.. […] For MIC determination, all peptides were measured in triplicates using the protocol described by Wiegand et al. for “antimicrobial peptides that require the presence of acetic acid/BSA”. In brief, 20 µL peptide solution and gentamycin solution was transferred to column 1 of 96-well plates. Next, 10 µL 0.2% BSA; 0.01% acetic acid MHB media was transferred to column 2–11. Subsequently, peptides were serially diluted two-fold in the MIC plate and 90 µL bacterial suspension was transferred to all wells in column 1–11. […] The colonies were counted and 50 colonies were expected on the 1:10,000 plates and 500 on the 1:1000 plates.

[3] = tested on: S. aureus ATCC 29213; type: cell-based
Method: (§1) Bacterial strains (E. coli ATCC 29522, S. aureus ATCC 29213, A. baumannii ATCC 19606, and P. aeruginosa ATCC 27853) were grown overnight on LB agar plates at 37 °C. Overnight cultures were prepared by inoculation of two to three colonies in 10 mL non-cation adjusted Mueller–Hinton broth (MHB) media (BD BBLTM Beef extract powder, BD BactoTMCasamino acids, and DIFCO soluble starch). Bacterial inoculum for MIC testing was prepared as balanced cultures, as previously described. The bacterial suspension was adjusted using MHB to an OD600 of 0.1, approximately 1·10^8 colony forming units (CFU/mL), and then diluted 1:200 in MHB, to give a final bacterial suspension of 5·10^5 CFU/mL, as described by Wiegand et al.. […] For MIC determination, all peptides were measured in triplicates using the protocol described by Wiegand et al. for “antimicrobial peptides that require the presence of acetic acid/BSA”. In brief, 20 µL peptide solution and gentamycin solution was transferred to column 1 of 96-well plates. Next, 10 µL 0.2% BSA; 0.01% acetic acid MHB media was transferred to column 2–11. Subsequently, peptides were serially diluted two-fold in the MIC plate and 90 µL bacterial suspension was transferred to all wells in column 1–11. Next, 100 µL bacterial suspension was transferred to column 12 D–F (growth control) and 100 µL media to column 12 A–C (sterility control). After an overnight incubation at 37 °C of the MIC plates, MIC values were determined as the lowest concentration at which there was no visible bacterial growth. For the inoculum control, 10 µL of solution from a positive-growth control well from each bacterial strain was dissolved in 990 µL phosphate-buffered saline (PBS) (1:100 dilution) in an Eppendorf tube. This solution was vortexed and 100 µL transferred to another Eppendorf tube containing 900 µL PBS (1:10 dilution) and vortexed. Then, 100 µL of each dilution was spread onto the MHB media plates, in triplicates, to achieve a CFU dilution of 1:1000 and 1:10,000, respectively. The plates were incubated overnight at 37 °C. The colonies were counted and 50 colonies were expected on the 1:10,000 plates and 500 on the 1:1000 plates.

[4] = tested on: A. baumannii ATCC 19606; type: cell-based; settings: for Minimum inhibitory concentration AB: ATCC 19606
Method: as §1

[5] = tested on: P. aeruginosa ATCC 27853; type: cell-based
Method: as §1

[6] = tested on: E. coli ATCC 29522; type: cell-based; settings: for Minimum inhibitory concentration EC: ATCC 29522
Method: as §1

[7] = tested on: red blood cells; settings: at 150 µM peptide; 0.5% v/v RBC in PBS, 1 h 37 °C, absorbance 414 nm, normalized to melittin (100%) and PBS (0%)
Method: A total of 150 µL of 5 µM melittin was added to the positive control wells 1-6H of a V-shaped 96-well polypropylene plate and left overnight. The melittin solution was removed and the positive control wells were washed 3 times with 150 µL PBS. Afterwards, a 2.5 µM melittin solution was added to the positive control wells. For the assay, 0-negative blood in EDTA was used. Blood was washed by mixing 3 mL of PBS with 1 mL of whole blood, and centrifuged for 8 min at 3000 rpm. The supernatant was discarded and 4 mL of PBS added, mixed gently, and centrifuged. This wash cycle was repeated but the last centrifuge velocity was raised to 4000 rpm. Next, 40 µL red blood cells (RBC) was suspended in 8 mL of PBS to achieve an RBC suspension of 0.5% volume/volume (v/v). Peptide solutions were prepared at 600 µM, two times the highest concentration. A total of 150 µL peptide solution was transferred to row A. Next, 75 µL PBS was transferred to wells B1 to G12, as well as H7-12 (negative control), and the peptides were serially diluted two-fold. Then, 75 µL RBC suspension was added to all wells and the plate was covered with a Microseal® film and incubated for 1 h at 37 °C. Next, the plate was centrifuged for 10 min at 4000 rpm. Subsequently, 60 µL supernatant was transferred into the corresponding wells of a clear, polystyrene, flat-bottomed 96-well ELISA plate. The absorbance was read at λ = 414 nm with a VersaMaxTM Tunable Microplate Reader and the data were evaluated on Softmax® Pro. The results were normalized with respect to the average positive (100%) and negative (0%) controls, as described previously [43].

[8] = tested on: S. aureus ATCC 29213; assay: Time-kill kinetics; type: cell-based
Method: (§2) The killing kinetics of compound 11 (Figure 1A–D) were performed in two types of experiments on approximately 5 × 10^5 (exponential phase) and 5 × 10^7 (late exponential phase) colony forming units (CFU). […] Colistin and chloramphenicol was used as control antibiotics against P. aeruginosa and S. aureus, respectively. Chloramphenicol was chosen against S. aureus because initial experiments indicated 11 to be bacteriostatic. Time-kill experiments were performed on balanced exponentially growing cultures of S. aureus ATCC 29213 or P. aeruginosa ATCC 27853. We used balanced cultures, as described in Oddo et al.. In brief, overnight cultures were prepared in MHB broth at 37 °C, with shaking. Overnight cultures, were back diluted and grown exponentially for no less than 8–10 generations, before experimentation. When experiments were done at OD600 = 0.0005 ~5 × 10^5, the cultures were back diluted into fresh MHB, heated to 37 °C from an exponentially growing culture. In the late exponential phase, cultures were simply kept in the exponential phase, until OD600 = 0.1, before experimentation.

[9] = tested on: P. aeruginosa ATCC 27853; assay: Time-kill kinetics; type: cell-based; settings: for kind of activity in time-kill experiments: P. aeruginosa; for effect on CFU: P. aeruginosa late exponential phase (OD600 ~0.1)
Method: as §2

[10] = P. aeruginosa late exponential phase, 5× MIC

Compound: NCC[C@@H]1NC(=O)[C@H](Cc2ccc3ccccc3c2)NC(=O)COCCOCCNC(=O)[C@H](Cc2ccc(-c3ccccc3)cc2)NC(=O)[C@H](CCN)NC(=O)[C@H](CCN)NC(=O)[C@H](Cc2ccc3ccccc3c2)NC(=O)[C@H](CCN)NC(=O)[C@H](CC(N)=O)NC1=O [compound 9] (cyclo([Dab][2Nal][Dab][Dab][Bip][AEEA][2Nal][Dab]N))
- HPLC retention time (RT) [1]: 17.8 min
- increase in activity compared to BSI-9 [2]: 8 fold
- Minimum inhibitory concentration SA [3]: 8 µg/mL (≈ 6.26 µM)
- Minimum inhibitory concentration AB [4]: 32 µg/mL (≈ 25 µM)
- Minimum inhibitory concentration PA [5]: 4 µg/mL (≈ 3.13 µM)
- Minimum inhibitory concentration EC [6]: >64 µg/mL
- percent hemolytic activity against red blood cells (%H) [7]: 76%

Compound: N=C(N)NCCC[C@@H]1NC(=O)[C@H](Cc2ccc3ccccc3c2)NC(=O)[C@H](CCN)NC(=O)[C@H](CC(N)=O)NC(=O)[C@H](CCN)NC(=O)[C@H](Cc2ccc3ccccc3c2)NC(=O)COCCOCCNC(=O)[C@H](Cc2ccc(-c3ccccc3)cc2)NC(=O)[C@H](CCN)NC1=O [compound 11] (cyclo([Dab][2Nal]R[Dab][Bip][AEEA][2Nal][Dab]N))
- reduction in CFU ([8]; S. aureus exponential phase, 1× MIC): 2 log
- reduction in CFU ([8]; S. aureus exponential phase, 3× MIC and 5× MIC): > 3 log
- reduction in CFU ([8]; S. aureus late exponential phase, 5× MIC, regrowth after 24 h): 3 log
- kind of activity in time-kill experiments [9]: bactericidal
- reduction in viable bacterial counts ([9]; P. aeruginosa exponential phase (~5 × 10^5 CFU), 1× MIC): ~ 2 log
- reduction in CFU ([9]; P. aeruginosa exponential phase, 3–5× MIC, within the first hour): > 3 log
- effect on CFU ([9]; 1× MIC): virtually no effect
- reduction in CFU ([9]; P. aeruginosa late exponential phase, 3× MIC): 1 log
- reduction in CFU [9, 10]: 3 log
- activity in MIC assays ([4]; A. baumannii): no activity
- Minimum inhibitory concentration AB [4]: 32 µg/mL (≈ 24 µM)
- Minimum inhibitory concentration EC [6]: 32 µg/mL (≈ 24 µM)
- activity in MIC assays ([6]; E. coli): no activity
- percent hemolytic activity against red blood cells (%H) [7]: 36%

Compound: N=C(N)NCCC[C@@H]1NC(=O)[C@H](Cc2ccc3ccccc3c2)NC(=O)COCCOCCNC(=O)[C@H](Cc2ccc(-c3ccccc3)cc2)NC(=O)[C@H](CCN)NC(=O)[C@H](CCN)NC(=O)[C@H](Cc2ccc3ccccc3c2)NC(=O)[C@H](CCN)NC(=O)[C@H](CC(N)=O)NC1=O [compound 13] (cyclo([Dab][2Nal][Dab][Dab][Bip][AEEA][2Nal]RN))
- HPLC retention time (RT) [1]: 17.9 min
- Minimum inhibitory concentration SA [3]: 1 µg/mL (≈ 0.75 µM)
- Minimum inhibitory concentration AB [4]: 64 µg/mL (≈ 48 µM)
- Minimum inhibitory concentration PA [5]: 4 µg/mL (≈ 3 µM)
- Minimum inhibitory concentration EC [6]: 32 µg/mL (≈ 24 µM)
- percent hemolytic activity against red blood cells (%H) [7]: 80%

Compound: N=C(N)NCCC[C@@H]1NC(=O)[C@H](CC(N)=O)NC(=O)[C@H](CCN)NC(=O)[C@H](Cc2ccc3ccccc3c2)NC(=O)COCCOCCNC(=O)[C@H](Cc2ccccc2)NC(=O)[C@H](CCN)NC(=O)[C@H](CCN)NC(=O)[C@H](Cc2ccc3ccccc3c2)NC1=O [compound 17] (cyclo(R[2Nal][Dab][Dab]F[AEEA][2Nal][Dab]N))
- Minimum inhibitory concentration SA [3]: 64 µg/mL (≈ 50.9 µM)
- Minimum inhibitory concentration AB [4]: >64 µg/mL
- Minimum inhibitory concentration PA [5]: 16 µg/mL (≈ 12.7 µM)
- Minimum inhibitory concentration EC [6]: 64 µg/mL (≈ 50.9 µM)
- percent hemolytic activity against red blood cells (%H) [7]: 3%

Compound: N=C(N)NCCC[C@@H]1NC(=O)[C@H](Cc2ccc3ccccc3c2)NC(=O)[C@H](CCN)NC(=O)[C@H](CC(N)=O)NC(=O)[C@H](CCN)NC(=O)[C@H](Cc2ccc3ccccc3c2)NC(=O)COCCOCCNC(=O)[C@H](Cc2ccccc2)NC(=O)[C@H](CCN)NC1=O [compound 18] (cyclo([Dab][2Nal]R[Dab]F[AEEA][2Nal][Dab]N))
- Minimum inhibitory concentration SA [3]: 64 µg/mL (≈ 50.9 µM)
- Minimum inhibitory concentration AB [4]: >64 µg/mL
- Minimum inhibitory concentration PA [5]: 16 µg/mL (≈ 12.7 µM)
- Minimum inhibitory concentration EC [6]: 64 µg/mL (≈ 50.9 µM)
- percent hemolytic activity against red blood cells (%H) [7]: 30%

Compound: colistin [reference compound]
- kind of activity in time-kill experiments [9]: bactericidal
- effect on CFU ([9]; 1× MIC): virtually no effect
- reduction in CFU [9, 10]: 1 log
